In article PMC10956426, “Lipid-Binding Regions within PKC-Related Serine/Threonine Protein Kinase N1 (PKN1) Required for Its Regulation” (Biochemistry, 2024):

Target: T1, PKN1-(C2), PKN1-(C2)-(342–605) (Rattus norvegicus, UniProt Q63433)
T1 construct: predominantly trimer
Assay: intrinsic tryptophan fluorescence quenching, Scatchard
Type: binding
Settings: 3 lipids per trimer, 20 mM phosphate pH 7.4, 25 mM NaCl, 25 °C, sonicated vesicles
Source text: intrinsic tryptophan fluorescence quenching, Scatchard on PKN1-(C2), PKN1-(C2)-(342–605)

[1] = type I (high-affinity) site of a biphasic curve

T1 sequence (Q63433 342-605): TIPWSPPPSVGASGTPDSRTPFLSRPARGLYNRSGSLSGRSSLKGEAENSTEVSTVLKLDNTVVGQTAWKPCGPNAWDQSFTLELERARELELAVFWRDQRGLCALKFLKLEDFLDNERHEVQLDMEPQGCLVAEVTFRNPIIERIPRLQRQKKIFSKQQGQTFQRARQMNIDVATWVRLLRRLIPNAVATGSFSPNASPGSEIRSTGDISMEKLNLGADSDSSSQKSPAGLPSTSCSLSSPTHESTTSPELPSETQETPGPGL

Kd (one class of sites) [nM] | Kd [1] [nM] | Substance
100 | – | phosphatidylcholine
– | 300 | phosphatidic acid
200 | – | phosphatidylserine
– | 1000 ± 600 | cardiolipin
